Measured values as given in article PMC10896213, “Identification of the KIF18A alpha-4 helix as a therapeutic target for chromosomally unstable tumor cells” (Frontiers in Molecular Biosciences, 2023).

Molecular target: T1, KIF18A (Homo sapiens, UniProt Q8NI77)
T1 construct: KIF18A (1−417); with pig microtubules (tubulin)
T1 sequence (Q8NI77 1-417): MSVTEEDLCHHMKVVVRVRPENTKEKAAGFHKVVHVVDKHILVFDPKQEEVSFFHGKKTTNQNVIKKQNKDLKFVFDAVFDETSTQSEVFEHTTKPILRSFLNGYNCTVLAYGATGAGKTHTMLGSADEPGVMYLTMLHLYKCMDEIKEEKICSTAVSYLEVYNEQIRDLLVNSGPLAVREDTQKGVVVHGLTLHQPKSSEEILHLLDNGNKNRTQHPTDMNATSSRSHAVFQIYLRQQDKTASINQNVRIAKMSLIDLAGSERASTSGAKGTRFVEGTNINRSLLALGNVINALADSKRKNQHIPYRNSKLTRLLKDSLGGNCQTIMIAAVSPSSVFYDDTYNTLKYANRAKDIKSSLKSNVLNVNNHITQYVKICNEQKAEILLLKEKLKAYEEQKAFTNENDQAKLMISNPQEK
Test: microtubule-stimulated ATPase assay (ADP-Glo)
Type: biochemical

An IC50 of 8.2 nM was found for `Cc1cc(NC(=O)c2cnc(NS(=O)(=O)CCO)cc2N2CCC3(CC2)CC3)nc(N2CCC(F)(F)CC2)n1` [Compound 3] in this work.
